Source: US8247211B2, “Glycopeptide antibiotics” (American Cyanamid Company, priority 2001, dated 2012)
≈ marks a conversion by molar mass, not a printed value.

Experiments:
[1] = tested on: Staphylococcus aureus-SMITH (GC 4543); assay: Acute lethal infection in mice (ED50); type: in vivo; conditions: female CD-1 mice, intraperitoneal challenge, intravenous dose 30 min. after infection, 7 day survival ratios
Method in brief: (§1)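 ED50 derived from pooled 7-day survival in three separate experiments, five mice per dose level. Single intravenous dose 30 min after intraperitoneal infection of female CD-1 mice with enough bacteria to kill untreated animals in 24-48 h.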

[2] = tested on: Enterococcus faecalis (GC 6189), vancomycin resistant strain; assay: Acute lethal infection in mice (ED50); type: in vivo; conditions: female CD-1 mice, intraperitoneal challenge, intravenous dose 30 min. after infection, 7 day survival ratios
Method in brief: as §1

[3] = tested on: Escherichia coli; assay: In vitro antibacterial evaluation: minimum inhibitory concentration (MIC), broth dilution method; type: cell-based; conditions: 5×10^5 CFU/mL, 18 hours at 35° C.
Method in brief: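 Broth dilution per NCCLS M7-A2 in Muller-Hinton II […], inoculum 5×10^5 CFU/mL, antibiotic tested over 64-0.06 μg/mL. MIC is taken as the lowest concentration that inhibits growth. Panel includes recent clinical isolates resistant to methicillin, penicillin and/or vancomycin.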

[4] = tested on: Enterococcus sp.; assay: as above; type: cell-based; conditions: broth dilution, 5×10^5 CFU/mL, 18 hours at 35° C.
Method in brief: (§2)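 Test strains, among them recent clinical isolates carrying methicillin, penicillin and/or vancomycin resistance, were inoculated at 5×10^5 CFU/mL. A broth dilution series spanning 64-0.06 μg/mL in Muller-Hinton II […] (NCCLS M7-A2) defined the MIC as the lowest growth-inhibiting concentration.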

[5] = tested on: Staphylococcus sp.; assay: as above; type: cell-based; conditions: for MIC Staphylococcus aureus (ATCC 29213): strain ATCC 29213; for MIC Staphylococcus aureus (GC 1131): strain GC 1131; for MIC Staphylococcus aureus (GC 3051): strain GC 3051; for MIC Staphylococcus aureus (GC 3053): strain GC 3053; for MIC Staphylococcus aureus (GC 4541): strain GC 4541; for MIC Staphylococcus aureus (GC 4542): strain GC 4542; for MIC Staphylococcus aureus-SMITH (GC 4543): strain GC 4543; for MIC Staphylococcus aureus (GC 4544): strain GC 4544; for MIC Staphylococcus aureus (GC 4545): strain GC 4545; for MIC Staphylococcus haemolyticus (GC 4546): strain GC 4546; for MIC Coagulase Negative Staphylococcus (GC 4547): strain GC 4547; for MIC Coagulase Negative Staphylococcus (GC 4548): strain GC 4548; for MIC Coagulase Negative Staphylococcus (GC 4549): strain GC 4549; for MIC Coagulase Negative Staphylococcus (GC 4551): strain GC 4551; for MIC Coagulase Negative Staphylococcus (GC 6257): strain GC 6257
Method in brief: as §2

[6] = tested on: Streptococcus sp.; assay: as above; type: cell-based; conditions: broth dilution, 5×10^5 CFU/mL, 18 hours at 35° C.
Method in brief: as §2

[7] = broth dilution, 18 hours at 35° C.

CC(c1ccccc1)C1NC(=O)CNC(=O)C(CO)NC(=O)C(C(O)C2CNC(=N)N2C2OC(CO)C(O)C(O)C2O)NC(=O)C(C(O)C2CNC(=N)N2)NC(=O)C(Cc2ccc(OC3OC(CO)C(OC4OC5COC(Cc6ccc(F)cc6)OC5C(O)C4O)C(O)C3O)cc2)NC1=O (stereo not drawn) [Example 121, Cyclo[glycyl-β-methylphenylalanyl-O-[4-O-[4,6-O-(4-fluorophenethylidene)hexopyranosyl]-hexopyranosyl]tyrosyl-3-(2-iminoimidazolidin-4-yl)seryl-3-(3-hexopyranosyl-2-iminoimidazolidin-4-yl)serylseryl]]
median effective dose (ED50), Staphylococcus aureus-SMITH (GC 4543) [1]: 0.32 mg/kg
median effective dose (ED50), Enterococcus faecalis (GC 6189) [2]: 0.5 mg/kg
MIC Escherichia coli (ATCC 25922) [3]: 32 µg/mL (≈ 22.6 µM)
MIC Escherichia coli (GC 4559) [3]: 32 µg/mL (≈ 22.6 µM)
MIC Escherichia coli (GC 4560) [3]: 1 µg/mL (≈ 0.707 µM)
MIC Enterococccus avium (GC 4558) [4]: 4 µg/mL (≈ 2.83 µM)
MIC Enterococccus faecalis (ATCC 29212) [4]: 2 µg/mL (≈ 1.41 µM)
MIC Enterococccus faecalis (GC 2691) [4]: 4 µg/mL (≈ 2.83 µM)
MIC Enterococccus faecalis (GC 3059) [4]: 2 µg/mL (≈ 1.41 µM)
MIC Enterococccus faecalis (GC 4552) [4]: 2 µg/mL (≈ 1.41 µM)
MIC Enterococccus faecalis (GC 4553) [4]: 4 µg/mL (≈ 2.83 µM)
MIC Enterococccus faecalis (GC 4554) [4]: 2 µg/mL (≈ 1.41 µM)
MIC Enterococccus faecalis (GC 6189) [4]: 2 µg/mL (≈ 1.41 µM)
MIC Enterococccus faecium (GC 2243) [4]: 2 µg/mL (≈ 1.41 µM)
MIC Enterococccus faecium (GC 4556) [4]: 2 µg/mL (≈ 1.41 µM)
MIC Enterococccus faecium (GC 4557) [4]: 2 µg/mL (≈ 1.41 µM)
MIC Enterococcus faecalis (GC 2242) [4]: 2 µg/mL (≈ 1.41 µM)
MIC Staphylococcus aureus (ATCC 29213) [5]: 1 µg/mL (≈ 0.707 µM)
MIC Staphylococcus aureus (ATCC 29213) [5, 7]: 1 µg/mL (≈ 0.707 µM)
MIC Staphylococcus aureus (GC 1131) [5]: 2 µg/mL (≈ 1.41 µM)
MIC Staphylococcus aureus (GC 1131) [5, 7]: 2 µg/mL (≈ 1.41 µM)
MIC Staphylococcus aureus (GC 3051) [5]: 1 µg/mL (≈ 0.707 µM)
MIC Staphylococcus aureus (GC 3051) [5, 7]: 1 µg/mL (≈ 0.707 µM)
MIC Staphylococcus aureus (GC 3053) [5]: 1 µg/mL (≈ 0.707 µM)
MIC Staphylococcus aureus (GC 3053) [5, 7]: 1 µg/mL (≈ 0.707 µM)
MIC Staphylococcus aureus (GC 4541) [5]: 1 µg/mL (≈ 0.707 µM)
MIC Staphylococcus aureus (GC 4541) [5, 7]: 1 µg/mL (≈ 0.707 µM)
MIC Staphylococcus aureus (GC 4542) [5]: 1 µg/mL (≈ 0.707 µM)
MIC Staphylococcus aureus (GC 4542) [5, 7]: 1 µg/mL (≈ 0.707 µM)
MIC Staphylococcus aureus-SMITH (GC 4543) ([5]; 18 hours at 35° C.): 1 µg/mL (≈ 0.707 µM)
MIC Staphylococcus aureus-SMITH (GC 4543) [5, 7]: 1 µg/mL (≈ 0.707 µM)
MIC Staphylococcus aureus (GC 4544) [5]: 2 µg/mL (≈ 1.41 µM)
MIC Staphylococcus aureus (GC 4544) [5, 7]: 2 µg/mL (≈ 1.41 µM)
MIC Staphylococcus aureus (GC 4545) [5]: 2 µg/mL (≈ 1.41 µM)
MIC Staphylococcus aureus (GC 4545) [5, 7]: 2 µg/mL (≈ 1.41 µM)
MIC Staphylococcus haemolyticus (GC 4546) [5]: 1 µg/mL (≈ 0.707 µM)
MIC Staphylococcus haemolyticus (GC 4546) [5, 7]: 1 µg/mL (≈ 0.707 µM)
MIC Coagulase Negative Staphylococcus (GC 4547) [5]: 1 µg/mL (≈ 0.707 µM)
MIC Coagulase Negative Staphylococcus (GC 4547) [5, 7]: 1 µg/mL (≈ 0.707 µM)
MIC Coagulase Negative Staphylococcus (GC 4548) [5]: 0.5 µg/mL (≈ 0.353 µM)
MIC Coagulase Negative Staphylococcus (GC 4548) [5, 7]: 0.5 µg/mL (≈ 0.353 µM)
MIC Coagulase Negative Staphylococcus (GC 4549) [5]: 0.5 µg/mL (≈ 0.353 µM)
MIC Coagulase Negative Staphylococcus (GC 4549) [5, 7]: 0.5 µg/mL (≈ 0.353 µM)
MIC Coagulase Negative Staphylococcus (GC 4551) [5]: 2 µg/mL (≈ 1.41 µM)
MIC Coagulase Negative Staphylococcus (GC 4551) [5, 7]: 2 µg/mL (≈ 1.41 µM)
MIC Coagulase Negative Staphylococcus (GC 6257) [5]: 1 µg/mL (≈ 0.707 µM)
MIC Coagulase Negative Staphylococcus (GC 6257) [5, 7]: 1 µg/mL (≈ 0.707 µM)
MIC Streptococcus agalactiae (GC 4564) [6]: 0.25 µg/mL (≈ 0.177 µM)
MIC Streptococcus pneumoniae (GC 1894) [6]: <0.06 µg/mL
MIC Streptococcus pneumoniae (GC 4565) [6]: <0.06 µg/mL
MIC Streptococcus pneumonine (ATCC 6301) [6]: <0.06 µg/mL
MIC Streptococcus pyogenes (GC 4563) [6]: 0.25 µg/mL (≈ 0.177 µM)
